Data on five molecules can be found in EP0792271B1, “FURAN DERIVATIVES FOR INHIBITING PNEUMOCYSTIS CARINII PNEUMONIA, GIARDIA LAMBLIA AND CRYPTOSPORIDIUM PARVUM” (priority 1994, dated 1996).

Like-named read-outs stand apart in the source and are kept apart here. Some results are limits rather than exact numbers.

Usually IC50 stands for the point on the concentration scale where inhibition reaches its midpoint.

The subject of one series is poly A poly T. Kind of series: DNA thermal melting (increase in Tm of poly A poly T). The format is binding. The conditions noted are these: MES buffer pH 6.0, 0.1 M NaCl, ratio of 0.3 moles of compound to nucleic acid bases. As to the method: (§1) Thermal melting curves for DNA and its complexes with compounds from Examples 4, 6, and 7-9 are determined as previously described in F.A. Tanious, et al., J.Biomol. Structure & Dynamics 11:1063 (1994) and W.D. Wilson, et al., Biochemistry 32:4098 (1993), by following the adsorption change at 260 nm as a function of temperature. Tm values were determined from first derivative plots. Compounds are compared by the increase in Tm (ΔTm=Tm of complex - Tm of the free nucleic acid) they produce in MES buffer (0.01M 2-(N-morpholino) ethanesulfonic acid, 0.001 M EDTA, 0.1 M NaCl adjusted to pH 6.0) at saturating amounts of compound (a ratio of 0.3 moles of compound to nucleic acid bases) unless otherwise indicated.

A further series relates to Cryptosporidium parvum. As to the kind of experiment: Activity against Cryptosporidium parvum in suckling mice (oocyst counts). The format is in vivo. The conditions noted are these: suckling ICR outbred Swiss mice; for Oocysts: mean oocyst count, control 36.71; for % Reduction: reduction of mean oocyst count versus control.
In series [1] the test system is oligomer d(GCGCAATTGCGC)2. As to the kind of experiment: DNA thermal melting (increase in Tm of oligomer). The conditions noted are these: increase in thermal melting of the oligomer d(GCGCAATTGCGC)2; MES buffer pH 6.0. The format is binding. The procedure:
as §1

A further series deals with Giardia lamblia. Kind of series: Inhibition of growth of Giardia lamblia in in vitro culture. The format is cell-based.
The target of series [2] is T1, topoisomerase II isolated from Drosophila melanogaster (Drosophila melanogaster, UniProt P15348).
T1 construct: topoisomerase II isolated from Drosophila melanogaster; from tissue
T1 sequence (P15348 1-1447): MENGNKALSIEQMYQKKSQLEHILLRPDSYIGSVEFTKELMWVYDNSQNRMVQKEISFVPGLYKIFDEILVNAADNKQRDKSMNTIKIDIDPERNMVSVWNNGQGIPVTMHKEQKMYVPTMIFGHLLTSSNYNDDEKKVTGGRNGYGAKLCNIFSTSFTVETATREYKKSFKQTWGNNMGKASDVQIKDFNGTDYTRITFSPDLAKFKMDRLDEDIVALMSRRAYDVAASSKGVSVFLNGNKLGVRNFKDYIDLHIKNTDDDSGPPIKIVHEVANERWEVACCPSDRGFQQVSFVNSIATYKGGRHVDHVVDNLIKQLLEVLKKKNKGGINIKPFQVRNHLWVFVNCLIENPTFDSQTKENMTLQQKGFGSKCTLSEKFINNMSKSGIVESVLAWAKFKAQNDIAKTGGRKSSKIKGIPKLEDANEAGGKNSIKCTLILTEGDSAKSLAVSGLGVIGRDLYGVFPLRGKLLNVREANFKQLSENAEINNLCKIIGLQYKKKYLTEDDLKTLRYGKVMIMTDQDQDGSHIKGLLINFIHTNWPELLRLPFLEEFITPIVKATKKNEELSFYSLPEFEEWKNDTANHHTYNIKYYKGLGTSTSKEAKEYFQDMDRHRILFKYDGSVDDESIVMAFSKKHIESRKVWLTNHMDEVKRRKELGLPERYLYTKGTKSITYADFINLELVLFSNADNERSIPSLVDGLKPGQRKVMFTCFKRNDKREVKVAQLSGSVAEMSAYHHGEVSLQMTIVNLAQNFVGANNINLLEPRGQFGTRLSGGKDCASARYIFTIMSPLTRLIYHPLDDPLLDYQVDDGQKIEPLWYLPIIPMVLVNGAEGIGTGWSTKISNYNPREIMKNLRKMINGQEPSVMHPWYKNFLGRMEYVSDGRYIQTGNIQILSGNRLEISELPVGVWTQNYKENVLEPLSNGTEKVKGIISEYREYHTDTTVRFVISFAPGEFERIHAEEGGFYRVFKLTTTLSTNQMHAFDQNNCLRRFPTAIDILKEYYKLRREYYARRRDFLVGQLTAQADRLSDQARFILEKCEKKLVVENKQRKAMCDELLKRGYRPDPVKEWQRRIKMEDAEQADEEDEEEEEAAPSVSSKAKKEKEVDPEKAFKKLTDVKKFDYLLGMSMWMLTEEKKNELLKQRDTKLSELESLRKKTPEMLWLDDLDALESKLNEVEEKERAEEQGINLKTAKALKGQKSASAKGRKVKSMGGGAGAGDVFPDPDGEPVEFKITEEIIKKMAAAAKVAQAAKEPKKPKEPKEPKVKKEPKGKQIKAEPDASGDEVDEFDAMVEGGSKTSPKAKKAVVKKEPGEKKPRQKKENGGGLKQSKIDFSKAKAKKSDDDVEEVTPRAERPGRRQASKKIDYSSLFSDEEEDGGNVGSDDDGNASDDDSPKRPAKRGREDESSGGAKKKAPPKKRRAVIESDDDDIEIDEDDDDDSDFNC
Kind of series: Topoisomerase II inhibition (Drosophila melanogaster enzyme). The format is biochemical.

Series [3] has as its target topoisomerase I isolated from Pneumocystis carinii. Kind of series: Topoisomerase I inhibition (Pneumocystis carinii enzyme). To be noted: 50% inhibition of topoisomerase I isolated from Pneumocystis carinii. The format is biochemical.
The next series has as its system Pneumocystis carinii. Kind of series: In vivo activity against Pneumocystis carinii (lung cyst counts and toxicity). The conditions noted are these: for Toxicity: toxicity scale, larger value = more severe, values greater than 2 indicate deaths of some animals.
Series [4] addresses topoisomerase II isolated from Giardia lamblia. As to the kind of experiment: Topoisomerase II inhibition (Giardia lamblia enzyme). To be noted: 50% inhibition of topoisomerase II isolated from Giardia lamblia; read-out: IC50 Topoisomerase Activity II G.l. The format is biochemical.
Where [5] appears, read: Pneumocystis carinii, iv, read-out: cyst/g lung (% of control).
Setting [6] is: Giardia duodenalis; read-out: IC50 Giardia lamblia.

Regarding `N=C(N)c1ccc(-c2ccc(-c3ccc(C(=N)N)cc3)o2)cc1` [Compound 1, 2,5-bis(4-amidinophenyl)furan], the ΔTm DNA in the series on poly A poly T worked out at 25 °C. In the series on Cryptosporidium parvum, this molecule returned an Oocysts of 6.6. Besides, in the series on Cryptosporidium parvum, the “% Reduction” value is reported as 66%. Also, the ΔTm Oligomer in series [1] turned out to be 11.7 °C. For the same molecule, the IC50 is 200 nM with Giardia lamblia (Giardia duodenalis, read-out: IC50 Giardia lamblia); 2000 nM in series [2]; 100000 nM in series [3]; 500 to 1000 nM in series [4]. Further, the response vs control in vivo at 0.027 µM with Pneumocystis carinii (setting [5]) was determined as 55.9%. In addition, in the series on Pneumocystis carinii (setting [5]), the response vs control in vivo at 0.27 µM is 4.8%. In addition, the response vs control in vivo at 2.7 µM in the series with Pneumocystis carinii (setting [5]) is 8.3%. Besides, the response vs control in vivo at 13.3 µM with Pneumocystis carinii (setting [5]) was 2.1%. For the same molecule, the response vs control in vivo at 66.3 µM in the series with Pneumocystis carinii (Pneumocystis carinii, po, read-out: cyst/g lung (% of control)) amounted to 28.4%. Further, the Toxicity with Pneumocystis carinii (dosage 0.027 µM/kg/day intravenous) is recorded as 0; in the series with Pneumocystis carinii (dosage 0.27 µM/kg/day intravenous), 0; with Pneumocystis carinii (dosage 2.7 µM/kg/day intravenous), 0; in the series on Pneumocystis carinii (dosage 13.3 µM/kg/day intravenous), 0; in the series on Pneumocystis carinii (dosage 66.3 µM/kg/day, oral dosage by gavage) it was 0.

Turning to `c1cc(-c2ccc(-c3ccc(C4=NCCCN4)cc3)o2)ccc1C1=NCCCN1` [Compound 3, 2,5-di-p[2(3,4,5,6-tetrahydropyrimidyl)phenyl]furan], in the series on poly A poly T, the ΔTm DNA is above 28 °C. In addition, the ΔTm Oligomer in series [1] was found to be 13.5 °C. The IC50 in the series with Giardia lamblia (setting [6]) was 60 nM; in series [2] it was 2500 nM; in series [3] it was above 100000 nM; in series [4] it was 500 to 1000 nM. The response vs control in vivo at 10.9 µM in the series with Pneumocystis carinii (setting [5]) was determined as 0.4%. Further, the Toxicity entry with Pneumocystis carinii (dosage 10.9 µM/kg/day intravenous) is “+2”.

In the case of `Cc1c(-c2ccc(C(=N)N)cc2)oc(-c2ccc(C(=N)N)cc2)c1C` [Compound 8, 2,5-bis(4-amidinophenyl)-3,4-dimethyl furan], the IC50 in the series on Giardia lamblia (setting [6]) is 260 nM; in series [2], 2400 nM; in series [3] it was below 3120 nM; in series [4] it was 750 nM. The Toxicity entry in the series with Pneumocystis carinii (dosage 24.7 µM/kg/day intravenous) is “+1”.

In the case of `Cc1ccc(Oc2cc(-c3ccc(C4=NCCN4)cc3)oc2-c2ccc(C3=NCCN3)cc2)cc1` [Compound 9, 2,5-[bis{4-(2-imidazolinyl)}phenyl]3-p-tolyloxy furan], the ΔTm DNA in the series with poly A poly T was 18.1 °C. Moreover, the IC50 in the series with Giardia lamblia (setting [6]) was above 100000 nM; in series [2] it was 25000 nM; in series [3], 12500 nM; in series [4], 2000 to 4000 nM. In addition, the Toxicity result in the series on Pneumocystis carinii (dosage 9.3 µM/kg/day intravenous) was “+2”.

As to `CC(C)NC(=N)c1ccc(-c2ccc(-c3ccc(C(=N)NC(C)C)cc3)o2)cc1` [Compound 13, 2,5-bis[4-(N-isopropylamidino)phenyl]furan], the ΔTm DNA in the series with poly A poly T is 23.1 °C. Also, the Oocysts with Cryptosporidium parvum came to 2.13. Also, the “% Reduction” value in the series on Cryptosporidium parvum is on record as 94.2%. Further, the IC50 with Giardia lamblia (setting [6]) is 140 nM; in series [2], 15000 to 30000 nM; in series [4], 500 to 1000 nM. In the series with Pneumocystis carinii (dosage 10.8 µM/kg/day intravenous), the Toxicity turned out to be 0.
